These results are taken from PMC10714751 (Microbiology Spectrum, 2023).

What is called MIC90 is an inhibitory concentration at the 90% level, which refers to growth in some studies and to a panel of isolates in others. As usually defined, the half-life is the time needed for the level to fall by half in the phase considered. Higher therefore signals slow loss. By AUC(0-inf) is commonly meant total exposure, with the tail of the curve extrapolated. The low end stands for low exposure, the high end for high exposure. What is called AUC(0-t) is exposure summed from dosing to a finite time, without extrapolation to infinity. A low value points to low exposure. Broadly, the clearance is the rate of elimination divided by the concentration. Usually MRT stands for the average time that molecules of a dose stay in the body. What is called Vd is a proportionality between amount in the body and measured concentration, not a real space.

In brackets after ≈: the same amount, converted by molar mass. Starred links: 1 amine or outer side, 2 acyl side, 3 side chain; linkers in the order of their positions; H or OH if unused. Positions of bridges follow the written chain, without caps; N, C: chain ends. Non-standard residues stand in square brackets, D forms with d. Residues, ends and D or L forms follow the SMILES beside them. *: point of attachment. dAsp(3R-OH) = N[C@@H](C(=O)O)[C@@H](O)C(=O)O; Palmitoleoyl = CCCCCC/C=C\CCCCCCCC(=O)*; X1 = NC[C@H](O)[C@@H](N[*:1])C(=O)[*:2]; X2 = CCC(C)(O)[C@H](N[*:1])C(=O)[*:2]; d(aIle) = CC[C@H](C)[C@@H](N)C(=O)O; d(aThr) = C[C@@H](O)[C@@H](N)C(=O)O; Myristoyl = CCCCCCCCCCCCCC(=O)*; dOrn = NCCC[C@@H](N)C(=O)O; X3 = CC[C@H](C)CCCCC(=O)*; hSer = N[C@@H](CCO)C(=O)O; Dab = NCC[C@H](N)C(=O)O

The subject of series [1] is Yersinia pestis. The following applies: cited from earlier work.
Series [2] relates to E. coli DH5α. The series is described as follows: Antimicrobial broth dilution assay. A general note: In broth dilution the organism is exposed to a series of concentrations in liquid medium.
Series [3] concerns E. coli C600. Description: Antimicrobial broth dilution assay. Conditions: MTT.
For series [4], the system named is A. baylyi ADP1 ΔpldA. Description: Broth dilution assay against pldA knockout. The following applies: Fig. S4.
Series [5] has as its system Keio E. coli mlaA knockouts (ΔmlaA). Description: Broth dilution assay against Keio mlaA knockouts. Conditions: triplicate, three biological replicates.
For series [6], the system named is A. baumannii AB5075UW ΔlpxC::ISAbaI. The series is described as follows: Broth dilution assay against LpxC-deficient mutant. Conditions: MIC90 ΔlpxC vs WT 5075UW, Fig. 2A.
In series [7] the test system is E. coli ΔompC, ΔompF. The series is described as follows: Broth dilution assay against OmpC and OmpF knockouts.
For series [8], the system named is A. baumannii Tn26-mlaA insertion strains AB8497, AB8498, AB8499. The series is described as follows: Broth dilution assay against mlaA transposon mutants. The following applies: for sensitivity of the mlaA mutants in comparison to the wild type: AB8497, AB8498, AB8499; for change of MIC90 against AB8497 versus wild type: mlaA insertion at position 132, twofold dilutions from 20 µg/mL; for change of MIC90 against AB8497 versus wild type / change of MIC90 against AB8499 versus wild type: 10 µg/mL tetracycline; for change of MIC90 against AB8499 versus wild type: mlaA insertion at position 507.

In series [9] the test system is evolved turnercyclamycin B-resistant E. coli DH5α. Description: Broth dilution assay against evolved resistant strains.
The subject of series [10] is pBR322 in DH5α. Description: Antimicrobial broth dilution assay, empty vector control. The following applies: MTT.
The subject of series [11] is pBR322 in C600. The description is as above. Conditions: MTT.
In series [12] the test system is pGDP2-MCR-1 in DH5α. Description: Antibiotic susceptibility testing of MCR-1-expressing E. coli.
For series [13], the system named is pGDP2-MCR-1 in C600. Described as above. The following applies: broth dilution, MTT.
The subject of series [14] is E. coli DH5α. The series is described as follows: Evolution of turnercyclamycin-resistant E. coli by sublethal dose passaging. The following applies: for time of exposure to reach 32× the original MIC90: daily serial passaging, up to 63 d.
Series [15] in a line: Pharmacokinetics in mice. The format is in vivo. Conditions: 5mg/kg IV, plasma, LC-MS/MS. How it is done: Eurofins used mice from BioLASCO Taiwan.
Protocols were performed at Eurofins (Taiwan). Turnercyclamycin A in plasma was measured by liquid chromatography-tandem mass spectrometry, and graphs illustrating the mean plasma concentrations (mean ± SD) over time were generated. PK parameters were obtained using non-compartmental analysis of the plasma data with WinNonlin.

Setting [16] is: female, BALB/c, mouse, mice, non-compartmental analysis.

In the case of `CC[C@H](C)CCCCC(=O)N[C@@H](CCN)C(=O)N[C@H](C(=O)N[C@@H](CCN)C(=O)N[C@H]1CCNC(=O)[C@H]([C@@H](C)O)NC(=O)[C@H](CCN)NC(=O)[C@H](CCN)NC(=O)[C@H](CC(C)C)NC(=O)[C@@H](CC(C)C)NC(=O)[C@H](CCN)NC1=O)[C@@H](C)O` [Colistin, colistin (polymyxin E)] (X3-[Dab]T[Dab][Dab][Dab][dL]L[Dab][Dab]T; lactam 4-C), the “susceptibility of Yersinia pestis after LPS modification with 4-amino-4-deoxy-L-arabinose” value in [1] was “blocked”. Also, the MIC90 is reported as 0.5 µg/mL (≈ 0.428 µM) in series [2] (DH5α WT (Table 2)); 0.5 µg/mL (≈ 0.428 µM) in [2] (text summary: both E. coli parent and vector-control strains (DH5α and C600)); 0.5 µg/mL (≈ 0.428 µM) in [3]; 0.25 µg/mL (≈ 0.214 µM) in series [5]; 0.5 µg/mL (≈ 0.428 µM) in [9] (Strain 1); 0.5 µg/mL (≈ 0.428 µM) in series [9] (Strain 2 (found contaminated with Staphylococcus)). For the same molecule, the MIC90 in [9] (Strain 3) came to 0.5 µg/mL (≈ 0.428 µM); in series [9] (Strain 4), 0.5 µg/mL (≈ 0.428 µM); in series [9] (Strain 5) it was 0.5 µg/mL (≈ 0.428 µM); in [10] it was 0.5 µg/mL (≈ 0.428 µM); in series [11], 1 µg/mL (≈ 0.855 µM); in series [12] (text summary: strains expressing mcr-1 (DH5α and C600)), 8 µg/mL (≈ 6.84 µM). This molecule came in with an MIC90 in series [13] of 8 µg/mL (≈ 6.84 µM). The “resistance of ΔpldA strain compared with WT A. baylyi ADP1” value in [4] is “did not significantly demonstrate resistance”. Moreover, the “loss in susceptibility of A. baumannii ΔlpxC in comparison to the wild-type strain” value in series [6] is “greater than fourfold”. Moreover, the “resistance of OmpC and OmpF knockouts” value in [7] was “not resistant”. Moreover, the “sensitivity of the mlaA mutants in comparison to the wild type” value in series [8] is “potentially slightly more sensitive”. Besides, in series [12] (MIC90 ratio mcr-1 strains / parent strains), the “loss of potency against strains expressing mcr-1 versus parent” value is reported as 16 fold.

With `CCCCCC/C=C\CCCCCCCC(=O)N[C@H](CCCN)C(=O)N[C@@H](CO)C(=O)N[C@H](C(=O)N[C@@H](C(=O)N[C@@H](C(=O)N[C@H]1C(=O)NCC(=O)N[C@@H](C(C)(O)CC)C(=O)N[C@H]([C@@H](C)CC)C(=O)N[C@@H](CCO)C(=O)N[C@@H](C)C(=O)N[C@H]([C@@H](C)CC)C(=O)N[C@@H](CCC(=O)O)C(=O)O[C@@H]1C)[C@@H](O)CN)[C@@H](O)C(=O)O)C(C)C` (stereo partly drawn) [Turnercyclamycin B] (Palmitoleoyl-[dOrn]SV[dAsp(3R-OH)][X1][d(aThr)]G[X2][d(aIle)][hSer]A[d(aIle)]E; ester 6-C), in series [8], the “change of MIC90 against AB8497 versus wild type” value is “doubled” and the “change of MIC90 against AB8499 versus wild type” value was “fourfold”. Besides, the “time of exposure to reach 32× the original MIC90” value in [14] fell in the range of 8 to 14 days.

On to `CO[C@H]1/C=C/O[C@@]2(C)Oc3c(C)c(O)c4c(O)c(cc(O)c4c3C2=O)NC(=O)/C(C)=C\C=C\[C@H](C)[C@H](O)[C@@H](C)[C@@H](O)[C@@H](C)[C@H](OC(C)=O)[C@@H]1C` [Rifamycin, rifamycin], for which the “sensitivity of the mlaA mutants in comparison to the wild type” value in series [8] is reported as “increase in sensitivity”.

Turning to `CCCCCCCCCCCCCC(=O)N[C@H](CCCN)C(=O)N[C@@H](CO)C(=O)N[C@H](C(=O)N[C@@H](C(=O)N[C@@H](C(=O)N[C@H]1C(=O)NCC(=O)N[C@@H](C(C)(O)CC)C(=O)N[C@H]([C@@H](C)CC)C(=O)N[C@@H](CCO)C(=O)N[C@@H](C)C(=O)N[C@H]([C@@H](C)CC)C(=O)N[C@@H](CCC(=O)O)C(=O)O[C@@H]1C)[C@@H](O)CN)[C@@H](O)C(=O)O)C(C)C` (stereo partly drawn) [Turnercyclamycin A] (Myristoyl-[dOrn]SV[dAsp(3R-OH)][X1][d(aThr)]G[X2][d(aIle)][hSer]A[d(aIle)]E; ester 6-C), the AUC/D in [15] (mice, non-compartmental analysis) is 58080 kg·ng·h/mL/mg. Further, the half-life in series [15] (BALB/c, mouse, ALB/c female mice, non-compartmental analysis (WinNonlin)) is 4.35 h. In [15] (setting [16]), this molecule yielded an AUC(0-inf) of 290 µg·h/mL, an exposure AUC(0-t) of 285 µg·h/mL and a C0 of 33700 ng/mL. Also, the clearance in series [15] (female, BALB/c, mouse, mice, non-compartmental analysis, read-out: CL (clearance rate) (converted)) was 0.29 mL/min/kg. Moreover, in series [15] (female, BALB/c, mouse, mice, non-compartmental analysis, read-out: MRT (mean residence time)), the mean residence time (MRT) is 5.83 h. For the same molecule, the volume of distribution (Vd) in series [15] (female, BALB/c, mouse, mice, non-compartmental analysis, read-out: VSS (Vd at steady state)) came to 0.1 L/kg. The “loss in susceptibility of A. baumannii ΔlpxC in comparison to the wild-type strain” value in [6] is reported as “greater than fourfold”. For the same molecule, in [8], the “change of MIC90 against AB8497 versus wild type” value is on record as “retained wild-type potency” and the “change of MIC90 against AB8499 versus wild type” value is “retained wild-type potency”. Also, in series [9] (Table 2, Fig. S3), the “sensitivity of turnercyclamycin B-resistant strains compared with wild type” value is recorded as “more sensitive”. Also, the “resistance reached by serial passaging (× original MIC90)” value in [14] (daily passaging at sub-MIC for 63 d) came out at 8 ×. Further, the “time of exposure to reach 32× the original MIC90” value in series [14] was over 63 days.
